Data reported in US20260217701A1, “SELECTIVE BET INHIBITORS AND USES THEREOF” (Tay Therapeutics Limited, priority 2022, published 2026).
Values joined by “and” are separate entries in the source; they are usually repeats but may differ in a detail not shown here. Equal values may be shown once.

Tested on: collagen-induced arthritis
Test: Collagen-induced arthritis (CIA) model: clinical scores and paw volume; as to Average animal paw volume percent change (%): reference of the scale not given here; as to animal paw volume percent change (%): reference of the scale not given here
Format: in vivo, Lewis rats
Details: for Average animal paw volume / Average animal paw volume percent change (%) / Animal paw volume percent change (%): group 3 CIA + Dexamethasone; for Animal paw volume percent change (%) / clinical score left forelimb / clinical score left hind limb / clinical score right forelimb / clinical score right hind limb / clinical score, score (all limbs) / Animal paw volume: individual animals; for Overall Clinical Score: individual animals 1-8; for Animal paw volume: Group 3 (CIA + Dexamethasone)
[1] = group 3 CIA+ Dexamethasone, Day 18
[2] = group 3 CIA+ Dexamethasone, Day 19
[3] = group 3 CIA+ Dexamethasone, Day 20

## C[C@@H]1C[C@H]2[C@@H]3CCC4=CC(=O)C=C[C@]4(C)[C@@]3(F)[C@@H](O)C[C@]2(C)[C@@]1(O)C(=O)CO [Dexamethasone, dexamethasone]
Day 0, L paw
  Average animal paw volume: 1.33 mL
  Average animal paw volume percent change (%): 0.00%
  Animal paw volume percent change (%): 0.00%
  Animal paw volume: 1.35 mL and 1.31 mL and 1.39 mL and 1.33 mL and 1.30 mL (2×) and 1.34 mL and 1.36 mL
Day 0, R paw
  Average animal paw volume: 1.33 mL
  Average animal paw volume percent change (%): 0.00%
  Animal paw volume percent change (%): 0.00%
  Animal paw volume: 1.34 mL and 1.30 mL (2×) and 1.38 mL and 1.35 mL and 1.29 mL and 1.36 mL and 1.37 mL
Day 0, CIA
  Average detailed clinical score, left forelimb: 0.00
  Average detailed clinical score, left hind limb: 0.00
  Average detailed clinical score, right forelimb: 0.00
  Average detailed clinical score, right hind limb: 0.00
  Average detailed clinical score, score: 0.00
  Average overall clinical score: 0
  clinical score left forelimb: 0
  clinical score left hind limb: 0
  clinical score right forelimb: 0
  clinical score right hind limb: 0
  clinical score, score (all limbs): 0
  Overall Clinical Score: 0
Day 6, L paw
  Average animal paw volume: 1.29 mL
  Average animal paw volume percent change (%): -3.37%
  Animal paw volume percent change (%): −2.97% and −1.53% and −3.61% and −3.02% and −3.09% and −3.08% and −4.12% and 5.51%
  Animal paw volume: 1.31 mL and 1.29 mL (3×) and 1.34 mL and 1.28 mL
Day 6, R paw
  Average animal paw volume: 1.29 mL
  Average animal paw volume percent change (%): -3.26%
  Animal paw volume percent change (%): −3.00% and 1.16% and −2.91% and −3.72% and −1.56% and −2.70% and −5.90% and −5.13%
  Animal paw volume: 1.30 mL (3×) and 1.28 mL (2×) and 1.34 mL and 1.27 mL
Day 6, CIA
  Average detailed clinical score, left forelimb: 0.00
  Average detailed clinical score, left hind limb: 0.00
  Average detailed clinical score, right forelimb: 0.00
  Average detailed clinical score, right hind limb: 0.00
  Average detailed clinical score, score: 0.00
  Average overall clinical score: 0
  clinical score left forelimb: 0
  clinical score left hind limb: 0
  clinical score right forelimb: 0
  clinical score right hind limb: 0
  clinical score, score (all limbs): 0
  Overall Clinical Score: 0
Day 12, L paw
  Average animal paw volume: 1.27 mL
  Average animal paw volume percent change (%): -4.94%
  Animal paw volume percent change (%): −10.41% and −7.66% and −1.44% and −3.40% and −1.54% and −6.54% and −3.00% and −5.51%
  Animal paw volume: 1.37 mL and 1.28 mL (2×) and 1.30 mL and 1.29 mL
Day 12, R paw
  Average animal paw volume percent change (%): -5.21%
  Animal paw volume percent change (%): −6.74% and −3.09% and 0.73% and −7.43% and −1.56% and −9.27% and −7.01% and −5.86%
  Animal paw volume: 1.37 mL and 1.27 mL and 1.29 mL
Day 12, CIA
  Average detailed clinical score, left forelimb: 0.00
  Average detailed clinical score, left hind limb: 0.00
  Average detailed clinical score, right forelimb: 0.00
  Average detailed clinical score, right hind limb: 0.00
  Average detailed clinical score, score: 0.00
  Average overall clinical score: 0
  clinical score left forelimb: 0
  clinical score left hind limb: 0
  clinical score right forelimb: 0
  clinical score right hind limb: 0
  clinical score, score (all limbs): 0
  Overall Clinical Score: 0
Day 13, L paw
  Average animal paw volume: 1.28 mL
  Average animal paw volume percent change (%): -3.57%
  Animal paw volume percent change (%): −8.92% and −5.36% and 0.72% and −3.02% and 0.00% and 4.23% and −2.25% and −5.51%
  Animal paw volume: 1.40 mL and 1.29 mL (2×) and 1.30 mL and 1.31 mL
Day 13, R paw
  Average animal paw volume: 1.28 mL
  Average animal paw volume percent change (%): -4.08%
  Animal paw volume percent change (%): −5.99% and −2.32% and 0.36% and −7.43% and −0.78% and −6.95% and −3.69% and 5.86%
  Animal paw volume: 1.27 mL and 1.38 mL and 1.28 mL and 1.31 mL and 1.29 mL
Day 13, CIA
  Average detailed clinical score, left forelimb: 0
  Average detailed clinical score, left hind limb: 0
  Average detailed clinical score, right forelimb: 0
  Average detailed clinical score, right hind limb: 0
  Average detailed clinical score, score: 0
  Average overall clinical score: 0
  clinical score left forelimb: 0
  clinical score left hind limb: 0
  clinical score right forelimb: 0
  clinical score right hind limb: 0
  clinical score, score (all limbs): 0
  Overall Clinical Score: 0
Day 14, L paw
  Average animal paw volume: 1.27 mL
  Average animal paw volume percent change (%): -4.60%
  Animal paw volume percent change (%): −8.18% and −5.36% and 0.00% and −4.53% and −1.54% and −5.00% and −3.75% and −8.46%
  Animal paw volume: 1.39 mL and 1.27 mL and 1.28 mL and 1.29 mL
Day 14, R paw
  Average animal paw volume percent change (%): -5.07%
  Animal paw volume percent change (%): −5.62% and −2.70% and 0.00% and −8.92% and −2.33% and −7.72% and −5.17% and −8.06%
  Animal paw volume: 1.38 mL and 1.29 mL
Day 14, CIA
  Average detailed clinical score, left forelimb: 0
  Average detailed clinical score, left hind limb: 0
  Average detailed clinical score, right forelimb: 0
  Average detailed clinical score, right hind limb: 0
  Average detailed clinical score, score: 0
  Average overall clinical score: 0
  clinical score left forelimb: 0
  clinical score left hind limb: 0
  clinical score right forelimb: 0
  clinical score right hind limb: 0
  clinical score, score (all limbs): 0
  Overall Clinical Score: 0
Day 15, L paw
  Average animal paw volume percent change (%): −5.47%
  Animal paw volume percent change (%): −8.92% and −7.28% and −2.17%
  Animal paw volume: 1.36 mL and 1.28 mL and 1.33 mL and 1.27 mL
Day 15, R paw
  Average animal paw volume percent change (%): −5.41%
  Animal paw volume percent change (%): −6.74% and −4.25% and 1.45%
  Animal paw volume: 1.36 mL and 1.27 mL (2×) and 1.32 mL
Day 15, CIA
  Average detailed clinical score, left forelimb: 0
  Average detailed clinical score, left hind limb: 0
  Average detailed clinical score, right forelimb: 0
  Average detailed clinical score, right hind limb: 0
  Average detailed clinical score, score: 0
  Average overall clinical score: 0
  clinical score left forelimb: 0
  clinical score left hind limb: 0
  clinical score right forelimb: 0
  clinical score right hind limb: 0
  clinical score, score (all limbs): 0
  Overall Clinical Score: 0
Day 18, L paw
  Average animal paw volume: 1.29 mL
  Average animal paw volume percent change (%): −3.01%
  Animal paw volume percent change (%): −5.20% and −6.51% and 4.33%
  Animal paw volume: 1.28 mL and 1.45 mL and 1.31 mL and 1.29 mL and 1.34 mL and 1.30 mL
Day 18, R paw
  Average animal paw volume: 1.29 mL
  Average animal paw volume percent change (%): −3.14%
  Animal paw volume percent change (%): 4.49% and −4.63% and 4.36%
  Animal paw volume: 1.28 mL and 1.44 mL and 1.31 mL and 1.29 mL (2×) and 1.34 mL
Day 18, CIA
  Average detailed clinical score, left forelimb: 0.00
  Average detailed clinical score, left hind limb: 0.00
  Average detailed clinical score, right forelimb: 0.00
  Average detailed clinical score, right hind limb: 0.00
  Average detailed clinical score, score: 0.00
  Average overall clinical score: 0
  Overall Clinical Score: 0
Day 19, L paw
  Average animal paw volume: 1.29 mL
  Average animal paw volume percent change (%): −3.33%
  Animal paw volume percent change (%): 5.20% and −6.90%
  Animal paw volume: 1.28 mL (2×) and 1.44 mL and 1.30 mL (2×) and 1.33 mL
Day 19, R paw
  Average animal paw volume: 1.28 mL
  Average animal paw volume percent change (%): −3.57%
  Animal paw volume percent change (%): −5.24% and −6.18%
  Animal paw volume: 1.27 mL (2×) and 1.44 mL and 1.31 mL and 1.32 mL and 1.30 mL
Day 19, CIA
  Average detailed clinical score, left forelimb: 0.00
  Average detailed clinical score, left hind limb: 0.00
  Average detailed clinical score, right forelimb: 0.00
  Average detailed clinical score, right hind limb: 0.00
  Average detailed clinical score, score: 0.00
  Average overall clinical score: 0
  Overall Clinical Score: 0
Day 21, L paw
  Average animal paw volume: 1.28 mL
  Average animal paw volume percent change (%): −3.56%
  Animal paw volume percent change (%): −6.32% and −6.90%
  Animal paw volume: 1.43 mL and 1.31 mL (2×) and 1.30 mL (2×)
Day 21, R paw
  Average animal paw volume: 1.29 mL
  Average animal paw volume percent change (%): −3.51%
  Animal paw volume percent change (%): −5.99% and −6.18%
  Animal paw volume: 1.43 mL and 1.31 mL and 1.30 mL (2×) and 1.32 mL
Day 21, CIA
  Average detailed clinical score, left forelimb: 0.00
  Average detailed clinical score, left hind limb: 0.00
  Average detailed clinical score, right forelimb: 0.00
  Average detailed clinical score, right hind limb: 0.00
  Average detailed clinical score, score: 0.00
  Average overall clinical score: 0
  Overall Clinical Score: 0
[1]
  clinical score left forelimb: 0
  clinical score left hind limb: 0
  clinical score right forelimb: 0
  clinical score right hind limb: 0
  clinical score, score (all limbs): 0
[2]
  clinical score left forelimb: 0
  clinical score left hind limb: 0
  clinical score right forelimb: 0
  clinical score right hind limb: 0
  clinical score, score (all limbs): 0
[3]
  clinical score left forelimb: 0
  clinical score left hind limb: 0
  clinical score right forelimb: 0
  clinical score right hind limb: 0
  clinical score, score (all limbs): 0
